Measurements published in article PMC5218480 (PLoS ONE, 2017).

System: MV-4-11 cells
Assay: Gene expression microarray analysis (Affymetrix PrimeView) and GSEA
Assay type: cell-based, human
Set-up: RFU PODN (11730768_x_at) / Fold change /veh PODN (11730768_x_at) / RFU LINC00158 (11744669_a_at) / Fold change /veh LINC00158 (11744669_a_at) / RFU DUSP10 (11751237_a_at) / Fold change /veh DUSP10 (11751237_a_at) / RFU ID3 (11757404_x_at) / Fold change /veh ID3 (11757404_x_at) / RFU PLEKHG5 (11737974_s_at) / Fold change /veh PLEKHG5 (11737974_s_at) / RFU LRRC4B (11730491_at) / Fold change /veh LRRC4B (11730491_at) / RFU GIMAP4 (11747438_a_at) / Fold change /veh GIMAP4 (11747438_a_at) / RFU KRT8 (11758183_x_at) / Fold change /veh KRT8 (11758183_x_at) / RFU CNN1 (11734310_a_at) / Fold change /veh CNN1 (11734310_a_at) / RFU VPS37D (11726825_at) / Fold change /veh VPS37D (11726825_at) / RFU C10orf10 (11716522_x_at) / Fold change /veh C10orf10 (11716522_x_at) / RFU KIR2DL2 /// KIR2DL4 /// KIR2DL5A /// KIR2DL5B /// KIR2DS1 /// KIR2DS2 /// KIR2DS3 /// KIR2DS4 /// KIR3DL3 /// KIR3DL3 /// KIR3DS1 (11738374_at) / Fold change /veh KIR2DL2 /// KIR2DL4 /// KIR2DL5A /// KIR2DL5B /// KIR2DS1 /// KIR2DS2 /// KIR2DS3 /// KIR2DS4 /// KIR3DL3 /// KIR3DL3 /// KIR3DS1 (11738374_at) / RFU C1QL1 (11718748_at) / Fold change /veh C1QL1 (11718748_at) / RFU TMPRSS4 (11747572_a_at) / Fold change /veh TMPRSS4 (11747572_a_at) / RFU HAMP (11756126_x_at) / Fold change /veh HAMP (11756126_x_at) / RFU RNFT2 (11725882_a_at) / Fold change /veh RNFT2 (11725882_a_at) / RFU NR4A2 (11747474_a_at) / Fold change /veh NR4A2 (11747474_a_at) / RFU ABCC12 (11746883_a_at) / Fold change /veh ABCC12 (11746883_a_at) / RFU TMEM136 (11760407_x_at) / Fold change /veh TMEM136 (11760407_x_at) / RFU CLDN22 /// WWC2 (11732394_at) / Fold change /veh CLDN22 /// WWC2 (11732394_at) / RFU HLA-DPB1 (11760878_x_at) / Fold change /veh HLA-DPB1 (11760878_x_at) / RFU SPINT1 (11716480_a_at) / Fold change /veh SPINT1 (11716480_a_at) / RFU GAP43 (11754022_s_at) / Fold change /veh GAP43 (11754022_s_at) / RFU A4GNT (11735810_at) / Fold change /veh A4GNT (11735810_at) / RFU PRB3 (11715151_x_at) / Fold change /veh PRB3 (11715151_x_at) / RFU TUBB4B (11761932_at) / Fold change /veh TUBB4B (11761932_at) / RFU CAPN14 (11732068_a_at) / Fold change /veh CAPN14 (11732068_a_at) / RFU TMCC2 (11721928_a_at) / Fold change /veh TMCC2 (11721928_a_at) / RFU IRGQ (11745062_a_at) / Fold change /veh IRGQ (11745062_a_at) / RFU FAM174B (11720279_a_at) / Fold change /veh FAM174B (11720279_a_at) / RFU TMPRSS4 (11748680_a_at) / Fold change /veh TMPRSS4 (11748680_a_at) / RFU FAM212B (11763350_a_at) / Fold change /veh FAM212B (11763350_a_at) / RFU PLEKHG5 (11743358_a_at) / Fold change /veh PLEKHG5 (11743358_a_at) / RFU ZSCAN30 (11745921_a_at) / Fold change /veh ZSCAN30 (11745921_a_at) / RFU CMKLR1 (11741424_a_at) / Fold change /veh CMKLR1 (11741424_a_at) / RFU LOC101060620 /// MAPK8IP1 (11723275_at) / Fold change /veh LOC101060620 /// MAPK8IP1 (11723275_at) / RFU SPTSSB (11747773_x_at) / Fold change /veh SPTSSB (11747773_x_at) / RFU PRSS12 (11739890_at) / Fold change /veh PRSS12 (11739890_at) / RFU BIN1 (11741810_x_at) / Fold change /veh BIN1 (11741810_x_at) / RFU WNT11 (11732464_a_at) / Fold change /veh WNT11 (11732464_a_at) / RFU C10orf10 (11716521_a_at) / Fold change /veh C10orf10 (11716521_a_at) / RFU C5orf56 (11738089_at) / Fold change /veh C5orf56 (11738089_at) / RFU CYB561 (11721691_x_at) / Fold change /veh CYB561 (11721691_x_at) / RFU ANKRD19P (11752326_a_at) / Fold change /veh ANKRD19P (11752326_a_at) / RFU OR2T12 /// OR2T33 /// OR2T8 (11738714_s_at) / Fold change /veh OR2T12 /// OR2T33 /// OR2T8 (11738714_s_at) / RFU VCAN (11748164_a_at) / Fold change /veh VCAN (11748164_a_at) / RFU JSRP1 (11732532_at) / Fold change /veh JSRP1 (11732532_at) / RFU KRTAP10-11 (11738290_x_at) / Fold change /veh KRTAP10-11 (11738290_x_at) / RFU MYO3A (11730013_a_at) / Fold change /veh MYO3A (11730013_a_at) / RFU EBF3 (11725865_a_at) / Fold change /veh EBF3 (11725865_a_at) / RFU CAMK2N1 (11719241_x_at) / Fold change /veh CAMK2N1 (11719241_x_at) / RFU C5orf56 (11738088_a_at) / Fold change /veh C5orf56 (11738088_a_at) / RFU OLFML3 (11715873_a_at) / Fold change /veh OLFML3 (11715873_a_at) / RFU LOC100653217 /// NTM (11731650_a_at) / Fold change /veh LOC100653217 /// NTM (11731650_a_at) / RFU MAPK11 (11762145_a_at) / Fold change /veh MAPK11 (11762145_a_at) / RFU FIZ1 (11724087_x_at) / Fold change /veh FIZ1 (11724087_x_at) / RFU OASL (11726364_x_at) / Fold change /veh OASL (11726364_x_at) / RFU SOX15 (11748057_x_at) / Fold change /veh SOX15 (11748057_x_at) / RFU CD79A (11719716_a_at) / Fold change /veh CD79A (11719716_a_at) / RFU HIST1H1D (11736915_at) / Fold change /veh HIST1H1D (11736915_at) / RFU CASKIN2 (11723855_a_at) / Fold change /veh CASKIN2 (11723855_a_at) / RFU LOC730098 (11760151_x_at) / Fold change /veh LOC730098 (11760151_x_at) / RFU OR4N2 (11742367_at) / Fold change /veh OR4N2 (11742367_at) / RFU PRRT2 (11749266_a_at) / Fold change /veh PRRT2 (11749266_a_at) / RFU SNX32 (11753110_a_at) / Fold change /veh SNX32 (11753110_a_at) / RFU CDHR5 (11726645_a_at) / Fold change /veh CDHR5 (11726645_a_at) / RFU RCAN1 (11760418_a_at) / Fold change /veh RCAN1 (11760418_a_at) / RFU FAM167A (11723789_a_at) / Fold change /veh FAM167A (11723789_a_at) / RFU FAM26E (11764081_at) / Fold change /veh FAM26E (11764081_at) / RFU ISYNA1 (11749810_s_at) / Fold change /veh ISYNA1 (11749810_s_at) / RFU ACY1 (11761880_at) / Fold change /veh ACY1 (11761880_at) / RFU 11764098_at / Fold change /veh 11764098_at / RFU SAMD14 (11745864_x_at) / Fold change /veh SAMD14 (11745864_x_at) / RFU NPB (11741838_a_at) / Fold change /veh NPB (11741838_a_at) / RFU TMPRSS6 (11731388_a_at) / Fold change /veh TMPRSS6 (11731388_a_at) / RFU KRTAP10-2 (11738614_at) / Fold change /veh KRTAP10-2 (11738614_at) / RFU ARHGAP8 /// PRR5-ARHGAP8 (11727945_x_at) / Fold change /veh ARHGAP8 /// PRR5-ARHGAP8 (11727945_x_at) / RFU KRTAP5-7 /// NADSYN1 (11734609_at) / Fold change /veh KRTAP5-7 /// NADSYN1 (11734609_at) / RFU RASL12 (11751679_a_at) / Fold change /veh RASL12 (11751679_a_at) / RFU CDKN2B (11736163_a_at) / Fold change /veh CDKN2B (11736163_a_at) / RFU PRF1 (11729649_at) / Fold change /veh PRF1 (11729649_at) / RFU, ZNF638 /// ZNF638-IT1 / Fold change vs veh, ZNF638 /// ZNF638-IT1 / RFU, PANK3 / Fold change vs veh, PANK3 / RFU, SH3YL1 / Fold change vs veh, SH3YL1 / RFU, ZEB2 / Fold change vs veh, ZEB2 / RFU, NRIP1 / Fold change vs veh, NRIP1 / RFU, PTTG1IP / Fold change vs veh, PTTG1IP / RFU, CAPN2 / Fold change vs veh, CAPN2 / RFU, MED14 / Fold change vs veh, MED14 / RFU, SNORA58 / Fold change vs veh, SNORA58 / RFU, C1orf63 / Fold change vs veh, C1orf63 / RFU, LRRFIP1 / Fold change vs veh, LRRFIP1 / RFU, NDUFAF7 / Fold change vs veh, NDUFAF7 / RFU, SLC12A2 / Fold change vs veh, SLC12A2 / RFU, IBTK / Fold change vs veh, IBTK / RFU, ESF1 / Fold change vs veh, ESF1 / Fold change vs veh, TMEM50B / RFU, TAOK1 / Fold change vs veh, TAOK1 / RFU, ACBD3 / Fold change vs veh, ACBD3 / RFU, TMA16 / Fold change vs veh, TMA16 / RFU, RWDD3 / Fold change vs veh, RWDD3 / RFU, BCAT1 / Fold change vs veh, BCAT1 / RFU, EDEM3 / Fold change vs veh, EDEM3 / RFU, TMEM33 / Fold change vs veh, TMEM33 / RFU, WDR75 / Fold change vs veh, WDR75 / RFU, AHCTF1 / Fold change vs veh, AHCTF1 / RFU, TFRC / Fold change vs veh, TFRC / RFU, ZDHHC17 / Fold change vs veh, ZDHHC17 / RFU, NOM1 / Fold change vs veh, NOM1 / RFU, ARL8B / Fold change vs veh, ARL8B / RFU, ZBTB11 / Fold change vs veh, ZBTB11 / RFU, TAMM41 / Fold change vs veh, TAMM41 / RFU, KIAA1704 /// LOC100996395 / Fold change vs veh, KIAA1704 /// LOC100996395 / RFU, ING1 / Fold change vs veh, ING1 / RFU, TRMT61B / Fold change vs veh, TRMT61B / RFU, FUBP3 / Fold change vs veh, FUBP3 / RFU, TP53 / Fold change vs veh, TP53 / RFU, TNKS2 / Fold change vs veh, TNKS2 / RFU, ZFP14 / Fold change vs veh, ZFP14 / RFU, ACTR2 / Fold change vs veh, ACTR2 / RFU, PPP3R1 / Fold change vs veh, PPP3R1 / RFU, PIK3R1 / Fold change vs veh, PIK3R1 / RFU, HNRNPA1 / Fold change vs veh, HNRNPA1 / RFU, RNF170 / Fold change vs veh, RNF170 / RFU, ZNF28 / Fold change vs veh, ZNF28 / RFU, RNGTT / Fold change vs veh, RNGTT / RFU, OGT / Fold change vs veh, OGT / RFU, BRD1 / Fold change vs veh, BRD1 / RFU, MARS / Fold change vs veh, MARS / RFU, ZNF655 / Fold change vs veh, ZNF655 / RFU, FAHD1 / Fold change vs veh, FAHD1 / RFU, BDP1 / Fold change vs veh, BDP1 / RFU, LRRCC1 / Fold change vs veh, LRRCC1 / RFU, ARID1A / Fold change vs veh, ARID1A / RFU, ZNF146 / Fold change vs veh, ZNF146 / RFU, ZNF330 / Fold change vs veh, ZNF330 / RFU, GPN3 / Fold change vs veh, GPN3 / RFU, C9orf123 / Fold change vs veh, C9orf123 / RFU, N4BP2L2 / Fold change vs veh, N4BP2L2 / RFU, ARFIP1 / Fold change vs veh, ARFIP1 / RFU, FAM179B / Fold change vs veh, FAM179B / RFU, BCL10 / Fold change vs veh, BCL10 / RFU, UHRF1BP1L / Fold change vs veh, UHRF1BP1L / RFU, BET1 / Fold change vs veh, BET1 / RFU, CNOT2 / Fold change vs veh, CNOT2 / RFU, ZNF268 / Fold change vs veh, ZNF268 / Fold change vs veh, ZNF507 / RFU, DGCR2 / Fold change vs veh, DGCR2 / RFU, WDSUB1 / Fold change vs veh, WDSUB1 / Fold change vs veh, HSP90B1 /// MIR3652 / RFU, ADSS / Fold change vs veh, ADSS / RFU, GK / Fold change vs veh, GK / RFU, ZNF148 / Fold change vs veh, ZNF148 / RFU, TAF9 / Fold change vs veh, TAF9 / RFU, SLC1A5 / Fold change vs veh, SLC1A5 / RFU, SLMO2 / Fold change vs veh, SLMO2 / RFU, ABCC4 / Fold change vs veh, ABCC4 / RFU, LOC101060439 /// RAP1B / Fold change vs veh, LOC101060439 /// RAP1B / RFU, RFX7 / Fold change vs veh, RFX7 / RFU, GTPBP10 / Fold change vs veh, GTPBP10 / RFU, CNEP1R1 / Fold change vs veh, CNEP1R1 / RFU, BIVM-ERCC5 /// ERCC5 / Fold change vs veh, BIVM-ERCC5 /// ERCC5 / RFU, ILF3 / Fold change vs veh, ILF3 / RFU 11762660_at / Fold change /veh 11762660_at / RFU VCAN (11757783_s_at) / Fold change /veh VCAN (11757783_s_at) / RFU DDX43 (11728927_at) / Fold change /veh DDX43 (11728927_at) / RFU KRT8 (11758188_x_at) / Fold change /veh KRT8 (11758188_x_at) / RFU NKD1 (11759106_at) / Fold change /veh NKD1 (11759106_at) / RFU SRD5A1 (11742802_a_at) / Fold change /veh SRD5A1 (11742802_a_at) / RFU TPSAB1 /// TPSB2 (11721975_s_at) / Fold change /veh TPSAB1 /// TPSB2 (11721975_s_at) / RFU GSTM3 (11746129_a_at) / Fold change /veh GSTM3 (11746129_a_at) / RFU IL23R (11737362_x_at) / Fold change /veh IL23R (11737362_x_at) / RFU TMEM51 (11727254_a_at) / Fold change /veh TMEM51 (11727254_a_at) / RFU PIWIL2 (11732686_x_at) / Fold change /veh PIWIL2 (11732686_x_at) / RFU ORM1 (11744905_x_at) / Fold change /veh ORM1 (11744905_x_at) / RFU CCDC152 (11743942_at) / Fold change /veh CCDC152 (11743942_at) / RFU ECM1 (11717891_a_at) / Fold change /veh ECM1 (11717891_a_at) / RFU IL23R (11748794_a_at) / Fold change /veh IL23R (11748794_a_at) / RFU TNFAIP8L3 (11732012_x_at) / Fold change /veh TNFAIP8L3 (11732012_x_at) / RFU MBOAT4 (11741988_at) / Fold change /veh MBOAT4 (11741988_at) / RFU 11764193_at / Fold change /veh 11764193_at / RFU TMEM53 (11763286_at) / Fold change /veh TMEM53 (11763286_at) / RFU MAGEB2 (11727129_at) / Fold change /veh MAGEB2 (11727129_at) / RFU TMEM200A (11744735_a_at) / Fold change /veh TMEM200A (11744735_a_at) / RFU CCDC152 (11751479_a_at) / Fold change /veh CCDC152 (11751479_a_at) / RFU FAM211A (11726209_a_at) / Fold change /veh FAM211A (11726209_a_at) / RFU RGS16 (11746705_a_at) / Fold change /veh RGS16 (11746705_a_at) / RFU VCAN (11755009_s_at) / Fold change /veh VCAN (11755009_s_at) / RFU RHOB (11743442_s_at) / Fold change /veh RHOB (11743442_s_at) / RFU RGS16 (11720943_a_at) / Fold change /veh RGS16 (11720943_a_at) / RFU RGS16 (11720944_at) / Fold change /veh RGS16 (11720944_at) / RFU, VPS4B / Fold change vs veh, VPS4B / RFU, CREB1 / Fold change vs veh, CREB1 / RFU, DNAJC13 / Fold change vs veh, DNAJC13 / RFU, GNAQ / Fold change vs veh, GNAQ / RFU, CDK5R1 / Fold change vs veh, CDK5R1 / RFU, ZRANB3 / Fold change vs veh, ZRANB3 / RFU, CUL4A / Fold change vs veh, CUL4A / RFU, CCNY / Fold change vs veh, CCNY / RFU, UFL1 / Fold change vs veh, UFL1 / RFU, COG3 / Fold change vs veh, COG3 / RFU, DIAPH2 / Fold change vs veh, DIAPH2 / RFU, SKA2 / Fold change vs veh, SKA2 / RFU, AFF3 / Fold change vs veh, AFF3 / RFU, LMF1 / Fold change vs veh, LMF1 / RFU, IPO11 / Fold change vs veh, IPO11 / RFU, DFFB / Fold change vs veh, DFFB / RFU, FOXP1 / Fold change vs veh, FOXP1 / RFU, CARD8 / Fold change vs veh, CARD8 / RFU, STRN3 / Fold change vs veh, STRN3 / RFU, ADK / Fold change vs veh, ADK / RFU, RASSF2 / Fold change vs veh, RASSF2 / RFU, WIPF1 / Fold change vs veh, WIPF1 / RFU, LARP1B / Fold change vs veh, LARP1B / RFU, RASA1 / Fold change vs veh, RASA1 / RFU, RB1 / Fold change vs veh, RB1 / RFU, PPFIA1 / Fold change vs veh, PPFIA1 / RFU, MAT2A / Fold change vs veh, MAT2A / RFU, CCT5 / Fold change vs veh, CCT5 / RFU, WDR92 / Fold change vs veh, WDR92 / RFU, CUX1 / Fold change vs veh, CUX1 / RFU, TTC7A / Fold change vs veh, TTC7A / RFU, TMEM135 / Fold change vs veh, TMEM135 / RFU, DEPTOR / Fold change vs veh, DEPTOR / RFU, CPM / Fold change vs veh, CPM / RFU, DNAJB6 / Fold change vs veh, DNAJB6 / RFU, CACNA2D3 / Fold change vs veh, CACNA2D3 / RFU, DTX4 / Fold change vs veh, DTX4 / RFU, TFCP2 / Fold change vs veh, TFCP2 / RFU, GMCL1 /// GMCL1P1 / Fold change vs veh, GMCL1 /// GMCL1P1 / RFU, AEBP2 / Fold change vs veh, AEBP2 / RFU, SNHG1 /// SNORD22 /// SNORD25 /// SNORD26 /// SNORD27 /// SNORD28 /// SNORD29 /// SNORD31 / Fold change vs veh, SNHG1 /// SNORD22 /// SNORD25 /// SNORD26 /// SNORD27 /// SNORD28 /// SNORD29 /// SNORD31 / Fold change (Aza/veh), C12orf56 (ProbeSet 11735607_a_at) / Fold change (ACY-1035/veh), C12orf56 (ProbeSet 11735607_a_at) / Fold change (Aza/veh), FGFR1OP (ProbeSet 11751329_s_at) / Fold change (ACY-1035/veh), FGFR1OP (ProbeSet 11751329_s_at) / Fold change (Aza/veh), VPS36 (ProbeSet 11739960_a_at) / Fold change (ACY-1035/veh), VPS36 (ProbeSet 11739960_a_at) / RFU SYPL1 (11715823_x_at) / Fold change /veh SYPL1 (11715823_x_at) / RFU IGFBP7 (11715501_s_at) / Fold change /veh IGFBP7 (11715501_s_at) / RFU REEP3 (11722064_at) / Fold change /veh REEP3 (11722064_at) / RFU IGLL1 (11728026_x_at) / Fold change /veh IGLL1 (11728026_x_at): dose or concentration left out as unconfirmed
Conditions: MV-4-11 cells, 48 hours

Nc1ncn([C@@H]2O[C@H](CO)[C@@H](O)[C@H]2O)c(=O)n1 [azacitidine]
Fold change /veh PRSS12 (11739890_at): 0.94
